Laboratory results reported in patent US11247972B2, “Compositions and methods for treating toxoplasmosis, cryptosporidiosis, and other apicomplexan protozoan related diseases” (University of Washington through its Center for …, priority 2010, dated 2022).
Entries after “also recorded” stand apart in the source; their conditions may differ.

Key:
TgCDPK1 = TgCDPK1 (Toxoplasma gondii, UniProt Q9BJF5); type: biochemical
CpCDPK1 = CpCDPK1 (Cryptosporidium parvum (strain Iowa II), UniProt A3FQ16); type: biochemical
C. parvum [1] = assay: C. parvum infection of HCT-8 cells (rRNA reverse transcriptase real time PCR); type: cell-based, Cryptosporidium parvum; conditions: inhibitor at time of infection and 1 hour after infection
SRC = SRC (Homo sapiens (Human), UniProt P12931); assay: Tyrosine kinase SRC counter-screen; type: biochemical
PfCDPK1 = PfCDPK1 (Plasmodium falciparum (isolate 3D7), UniProt P62344); assay: biochemical; conditions: read-out: PfCDPK1 (% inhibition @ 3 uM)
PfCDPK4 = PfCDPK4 (Plasmodium falciparum (isolate 3D7), UniProt Q8IBS5); assay: biochemical; conditions: read-out: PfCDPK4 (% inhibition @ 3 uM)
ABL = ABL (Homo sapiens (Human), UniProt P00519)
[2] = tested on: human promyelocytic leukemia (HL-60); assay: Growth inhibition / toxicity in human cell line HL-60; conditions: HL60, 10 μM
[3] = tested on: human lymphocyte (CRL8155); assay: Growth inhibition / toxicity in human cell line CRL8155; conditions: CRL8155, 10 μM
[4] = tested on: P. berghei expressing PfCDPK4-2x-myc; design: species or system Plasmodium berghei; conditions: in vivo
P. berghei = tested on: P. berghei; design: species or system Plasmodium berghei; conditions: in vivo
P. falciparum = P. falciparum NF54 gametocyte exflagellation with compound in blood; type: cell-based, Plasmodium falciparum
C. parvum [5] = assay: Immunosuppressed (SCID-beige) mouse C. parvum model, stool qRT-PCR; type: in vivo, Cryptosporidium parvum; conditions: oral gavage once a day, days 3-7 and 10-14; 29 and 150 50 mg/kg/day, Paromomycin 2 g/kg/day
Method: Shown are mean of the parasite numbers detected in 25 mg of stool from each mouse, by qRT-PCR.

glioma derived (SF539) = assay: Growth inhibition / toxicity in human cell line SF539

SMILES | inhibition at 3 µM (PfCDPK1) | inhibition at 3 µM (PfCDPK4) | further results
CC(C)(C)n1nc(-c2ccc3ccccc3c2)c2c(N)ncnc21 [Compound 2, 1-tert-butyl-3-(naphthalen-2-yl)-1H-pyrazolo[3,4-d]pyrimidin-4-amine] | – | – | inhibition of TgCDPK1 (in words) (TgCDPK1): most potent inhibitor; inhibition of CpCDPK1 (in words) (CpCDPK1): most potent inhibitor; C. parvum parasite levels / proliferation in HCT-8 cells (C. parvum [1]): most potent effect
Nc1ncnc2c1c(Cc1cccc3ccccc13)nn2CC1CCNCC1 [Compound 5h, 3-(naphthalen-1-ylmethyl)-1-(piperidin-4-ylmethyl)-1H-pyrazolo[3,4-d]pyrimidin-4-amine] | 66% | 95% | inhibition of SRC (in words) (SRC): reduced potency; inhibition of ABL (in words) (ABL): reduced potency
CC(C)n1nc(-c2ccc(Cl)cc2)c2c(N)ncnc21 [Compound 7a, 3-(4-chlorophenyl)-1-isopropyl-1H-pyrazolo[3,4-d]pyrimidin-4-amine] | 97% | 86% | relative potency TgCDPK1 versus CpCDPK1 (in words) (TgCDPK1): more potent against TgCDPK1 than CpCDPK1
CSc1cccc(-c2nn(C(C)C)c3ncnc(N)c23)c1 [Compound 7ab, 1-isopropyl-3-(3-(methylthio)phenyl)-1H-pyrazolo[3,4-d]pyrimidin-4-amine] | – | – | relative potency TgCDPK1 versus CpCDPK1 (in words) (TgCDPK1): more potent against TgCDPK1 than CpCDPK1
CC(C)n1nc(-c2cccc(Cl)c2)c2c(N)ncnc21 [Compound 7b, 3-(3-chlorophenyl)-1-isopropyl-1H-pyrazolo[3,4-d]pyrimidin-4-amine] | 72% | 85% | relative potency TgCDPK1 versus CpCDPK1 (in words) (TgCDPK1): more potent against TgCDPK1 than CpCDPK1
CC(C)n1nc(-c2ccc(Cl)c(Cl)c2)c2c(N)ncnc21 [Compound 7c, 3-(3,4-dichlorophenyl)-1-isopropyl-1H-pyrazolo[3,4-d]pyrimidin-4-amine] | 93% | 97% | inhibition of CpCDPK1 (in words) (CpCDPK1): potent against both enzymes
CC(C)c1ccc(-c2nn(C(C)C)c3ncnc(N)c23)cc1 [Compound 7d, 1-isopropyl-3-(4-isopropylphenyl)-1H-pyrazolo[3,4-d]pyrimidin-4-amine] | 90% | 80% | relative potency TgCDPK1 versus CpCDPK1 (in words) (TgCDPK1): more potent against TgCDPK1 than CpCDPK1
Cc1cc(-c2nn(C(C)C)c3ncnc(N)c23)ccc1F [Compound 7i, 3-(4-fluoro-3-methylphenyl)-1-isopropyl-1H-pyrazolo[3,4-d]pyrimidin-4-amine] | 79% | 79% | inhibition of CpCDPK1 (in words) (CpCDPK1): potent against both enzymes
COc1ccc(-c2nn(C(C)C)c3ncnc(N)c23)cc1OC [Compound 7k, 3-(3,4-dimethoxyphenyl)-1-isopropyl-1H-pyrazolo[3,4-d]pyrimidin-4-amine] | 93% | 43% | inhibition of CpCDPK1 (in words) (CpCDPK1): potent against both enzymes
COc1cc(-c2nn(C(C)C)c3ncnc(N)c23)cc(OC)c1OC [Compound 7l, 1-isopropyl-3-(3,4,5-trimethoxyphenyl)-1H-pyrazolo[3,4-d]pyrimidin-4-amine] | – | – | relative potency TgCDPK1 versus CpCDPK1 (in words) (TgCDPK1): equipotent or slightly selective for CpCDPK1
COc1ccc(-c2nn(C(C)C)c3ncnc(N)c23)cc1C [Compound 7m, 1-isopropyl-3-(4-methoxy-3-methylphenyl)-1H-pyrazolo[3,4-d]pyrimidin-4-amine] | 77% | 85% | inhibition of CpCDPK1 (in words) (CpCDPK1): potent against both enzymes
CC(C)n1nc(-c2cnc3ccccc3c2)c2c(N)ncnc21 [Compound 7t, 1-isopropyl-3-(quinolin-3-yl)-1H-pyrazolo[3,4-d]pyrimidin-4-amine] | 65% | 83% | inhibition of TgCDPK1 (in words) (TgCDPK1): potent inhibitors of both enzymes; inhibition of CpCDPK1 (in words) (CpCDPK1): potent inhibitors of both enzymes
Cc1cccc2[nH]c(-c3nn(C(C)C)c4ncnc(N)c34)cc12 [Compound 25, 1-isopropyl-3-(4-methyl-1H-indol-2-yl)-1H-pyrazolo[3,4-d]pyrimidin-4-amine] | – | 92% | Cell Toxicity HL60, % at 10 μM [2]: 47% toxicity at; Cell Toxicity CRL8155, % at 10 μM [3]: 38% toxicity at
CC(C)n1nc(-c2cc3c(Cl)cccc3[nH]2)c2c(N)ncnc21 [Compound 26, 3-(4-chloro-1H-indol-2-yl)-1-isopropyl-1H-pyrazolo[3,4-d]pyrimidin-4-amine] | – | 93% | Cell Toxicity HL60, % at 10 μM [2]: 45% toxicity at; Cell Toxicity CRL8155, % at 10 μM [3]: 38% toxicity at
CCOc1ccc2cc(-c3nn(CC4CCNCC4)c4ncnc(N)c34)ccc2c1 [Compound 29, 3-(6-ethoxynaphthalen-2-yl)-1-(piperidin-4-ylmethyl)-1H-pyrazolo[3,4-d]pyrimidin-4-amine] | 97% | – | duration of complete suppression of male gametocyte differentiation to exflagellating units [4]: 14 h; exflagellation in blood samples from treated mice [4]: some exflagellation was observed; formation of oocysts in A. stephensi (P. berghei): completely blocked; P. falciparum exflagellation (P. falciparum; 1 and 3 μM): complete suppression; also recorded: suppressed completely; also recorded: prevented the exflagellation of microgametes; parasites in stool at the end of treatment (C. parvum [5]): not detected; rebound of parasite burden after treatment (C. parvum [5]): slowly
Nc1ncnc2c1c(-c1ccc3cc(OCc4ccccc4)ccc3c1)nn2CC1CCNCC1 [Compound 34, 3-(6-(benzyloxy)naphthalen-2-yl)-1-(piperidin-4-ylmethyl)-1H-pyrazolo[3,4-d]pyrimidin-4-amine] | – | 97% | Cell Toxicity LD50 SF539 (glioma derived (SF539)): 6 µM
CC(C)(C)n1nc(-c2ccc3oc(-c4ccccc4)nc3c2)c2c(N)ncnc21 [Compound 131] | 100% | 38% | –

SMILES | inhibition at 3 µM (PfCDPK1) | inhibition at 3 µM (PfCDPK4) | further results
COc1ccc(-c2nn(C(C)(C)C)c3ncnc(N)c23)cc1C [Compound 132] | 96% | 96% | –
Cc1cc(-c2nn(C(C)(C)C)c3ncnc(N)c23)ccc1-c1ccccc1 [Compound 133] | 79% | 26% | –
Cc1cccc(-c2nn(C(C)(C)C)c3ncnc(N)c23)c1 [Compound 134] | 89% | 87% | –
COc1ccc2cc(-c3nn(C(C)(C)C)c4ncnc(N)c34)ccc2c1 [Compound 135] | 96% | 97% | –
CC(C)(C)n1nc(-c2ccc(-c3ccccc3)cc2)c2c(N)ncnc21 [Compound 136] | 90% | 16% | –
CCOc1ccc2cc(-c3nn(C(C)(C)C)c4ncnc(N)c34)ccc2c1 [Compound 137] | 95% | 95% | –
Cn1ccc2cc(-c3nn(C(C)(C)C)c4ncnc(N)c34)ccc21 [Compound 139] | 99% | 96% | –
CC(C)(C)n1nc(-c2ccccc2)c2c(N)ncnc21 [Compound 140] | 98% | 90% | –
Cn1ncc2cc(-c3nn(C(C)(C)C)c4ncnc(N)c34)ccc21 [Compound 142] | 98% | 97% | –
CC(C)(C)n1nc(-c2ccc3ncccc3c2)c2c(N)ncnc21 [Compound 143] | 97% | 97% | –
COc1ccc(-c2nn(CC3CCNCC3)c3ncnc(N)c23)cc1C [Compound 144] | 95% | 94% | –
Nc1ncnc2c1c(-c1ccccc1)nn2CC1CCNCC1 [Compound 145] | 93% | 63% | –
Nc1ncnc2c1c(-c1ccc3ccccc3c1)nn2CC1CCNCC1 [Compound 147, 3-(naphthalen-2-yl)-1-(piperidin-4-ylmethyl)-1H-pyrazolo[3,4-d]pyrimidin-4-amine] | 100% | 99% | –
CCOc1ccc2cc(-c3nn(CC4CCN(C)CC4)c4ncnc(N)c34)ccc2c1 [Compound 150, 3-(6-ethoxynaphthalen-2-yl)-1-((1-methylpiperidin-4-yl)methyl)-1H-pyrazolo[3,4-d]pyrimidin-4-amine] | – | – | EC50 (P. falciparum; Plasmodium falciparum, read-out: Parasite Proliferation Assay EC50 P. falciparum Exflaggelation): 50 nM; parasites in stool at the end of treatment (C. parvum [5]): not detected; rebound of parasite burden after treatment (C. parvum [5]): not
CC(C)(C)n1nc(-c2ccc3ccccc3c2)c2c(N)ncnc21 [NA-PP2, reference compound] | – | – | formation of oocysts in A. stephensi (P. berghei): hundreds of oocysts per mosquito
NC[C@@H]1O[C@H](O[C@H]2[C@@H](O)[C@H](O[C@@H]3[C@@H](O)[C@H](N)C[C@H](N)[C@H]3O[C@H]3O[C@H](CO)[C@@H](O)[C@H](O)[C@H]3N)O[C@@H]2CO)[C@H](N)[C@@H](O)[C@@H]1O [Paromomycin, reference compound] | – | – | parasites in stool at the end of treatment (C. parvum [5]): not detected; rebound of parasite burden after treatment (C. parvum [5]): quickly rebounded
